Measured values as given in patent US9028842B2, “Compositions and methods for treatment, research and therapeutic applications for malaria” (priority 2007, dated 2015).
Where no end group is shown, it is not given here.

Legend:
P. falciparum = test: GST-fusions loaded into resealed erythrocyte ghosts, then infection by Plasmodium falciparum; type: cell-based
Text: Erythrocytes were loaded with GST cargo and resealed according to previous protocols^15. Schizonts were percoll-purified to >95% purity and mixed with loaded ghosts at 2% parasitemia. Numbers of rings, trophozoites and schizonts were enumerated by a counter who was blinded to sample identity. Parasite morphology was monitored for any differences. Images of blood smears were taken by light microscopy with a Zeiss Axioskop upright microscope and Nuance spectral camera/un-mixing system (Cambridge Research and Instrumentation).

[1] = tested on: TVN of P. falciparum infected ghosts; test: Visualization of tubovesicular network by BODIPY-Texas Red C5 ceramide staining; type: cell-based, Plasmodium falciparum; conditions: 10 μM in erythrocyte cytoplasm
Experimental: To visualize TVN membranes, erythrocytes or ghosts infected with indicated P. falciparum strain were washed free of serum and stained with 2.5 μM BODIPY-Texas Red C5 ceramide (N-((4-(4,4-difluoro-5-(2-thienyl)-4-bora-3a,4a-diaza-s-indacene-3-yl)phenoxy)acetyl)sphingosine, Invitrogen) for 15 min at 37° C. Nuclei were stained with 10 μg/mL Hoechst 33342. The cells were washed in RPMI 1640 three times and viewed live by DeltaVision Deconvolution microscopy as described^9.

[2] = tested on: P. falciparum 3D7 infected ghosts; test: Indirect immunofluorescence assay of parasite protein export in infected ghosts; type: cell-based, Plasmodium falciparum; conditions: 10 μM in erythrocyte cytoplasm
Experimental: Indirect immunofluorescence assay was conducted as described^27. Ghosts that were infected with 3D7 were probed with antibodies to HRPII (Santa Cruz) and MSP1 (MR4) and appropriate secondary antibodies conjugated to FITC or rhodamine. Nuclei were stained with 10 μg/mL Hoechst 33342. Images were captured using DeltaVision Deconvolution microscopy as described^10.

[3] = tested on: P. falciparum 3D7 ring stage parasites; test: Transcriptional response to PPMP treatment by microarrays; type: cell-based, Plasmodium falciparum; conditions: 5 μM dl-threo-PPMP, 24 hr, relative to control trophozoites
Experimental: Ring stage parasites were treated with either 5 μM dl-threo-PPMP or vehicle ([ethanol]f=0.01%) for 24 hr and were harvested for RNA isolation. Untreated ring stage parasites were also harvested. The experimental design served to compare PPMP— to either mock-treated or ring stage transcripts. RNA was isolated according to Invitrogen (Carlsbad, Calif.) protocols using Trizol. First strand cDNA synthesis and hybridizations were performed according to previous protocols^24. Microarray slides were scanned using GenePix 4000B Scanner and analyzed with GenePix Pro 4.1. The statistical program R with the add-in package SMA (http://www. followed by stat.berkeley.edu/%7Eterry/zarray/Software/smacode.html) was used to normalize data^25,26. Only high quality features and those with signal two standard deviations above background were analyzed, leaving 4580 elements from a total of 8088 oligos. Features with a log odds ratio above zero were considered.

[4] = tested on: P. falciparum ring stage parasites; test: Quantitative RT-PCR of PFD0495c transcript after PPMP treatment; type: cell-based, Plasmodium falciparum; conditions: 5 μM PPMP, 12 and 24 hr of treatment
Experimental: Quantitative PCR was used to confirm the array results. Parasites were synchronized by successive rounds of percoll and sorbitol. Ring stage parasites were treated with either 5 μM dl-threo-PPMP or vehicle (ethanol=0.01%) for 3, 6, 12, and 24 h. RNA was isolated using Trizol (Invitrogen) and treated with DNAse (Promega) according the manufacturer's recommendations. Integrity of the RNA was confirmed with the 2100 Bioanalyzer (Agilent). First strand cDNA synthesis was initiated by priming 5 ug RNA with 40 ug/mL oligo(dT)12-18 at 65° C. for 5 min then incubating reaction with 0.5 mM dNTPs and 200 U SuperScript reverse transcriptase (Invitrogen) for 60 min at 42° C. The reaction was inactivated by heating to 70° C. for 15 min. […]
Amplification of P. falciparum 18S ribosomal RNA (GI 160642), an endogenous control, was done in parallel (forward 5′-ACAATTGGAGGGCAAGT-′3 (SEQ ID NO:39), reverse 5′-TTGGAGCTGGAATTACC-3′ (SEQ ID NO:40)) to standardize the amount of sample in each well. […] Relative quantification was performed using the comparative method, whereby the amount of PFD0495c was normalized to the endogenous control 18S rRNA. […]

[5] = tested on: P. falciparum infected erythrocytes expressing PfHRPII-GFP; test: Endocytic lipid import with the lipid marker FM4-64; type: cell-based, Plasmodium falciparum; conditions: 5 μM PPMP, short-term (30 min)
Experimental: FM4-64 (N-(3-triethylammoniumpropyl)-4-(6-(4-(diethylamino)phenyl)hexatrienyl)pyridinium dibromide) is a fluorescent lipid marker that has been used to study endocytosis in eukaryotic cells^18. To visualize active uptake of FM4-64 from the erythrocyte plasma membrane during intraerythrocytic growth, trophozoite stage parasites expressing either PfHRPII-GFP or PFD0495c-GFP were incubated in the absence or presence of 5 μM dl-threo-PPMP for 30 min at 37° C. Infected erythrocytes were washed three times in PBS then stained with 16 μM FM4-64 for 30 min at 37° C. Nuclei were stained with 10 μg/mL Hoechst 33342, and cells were washed with PBS three times. Cells were imaged live with DeltaVision Deconvolution microscopy^10.

[6] = tested on: P. falciparum 3D7 and PFD0495c-GFP clones; test: Reversibility of treatment with PPMP after 24 hr; type: cell-based, Plasmodium falciparum
Experimental: Synchronized ring stage parasites at 5-10% pst were incubated with 5 uM PPMP for 24 hr (day 1). Infected erythrocytes were washed with RPMI 1640 three times to remove PPMP then put back into culture. Blood smears were made at days 0, 1, 2, and 3 and stained with Giemsa. Parasites were fed fresh media every 24 hr. Rings, trophozoites and schizonts were enumerated by a counter who was blinded to sample identity. Both PFD0495c-GFP clones responded to PPMP in the same manner as 3D7. […] When PPMP was washed out, all parasites continued the cell cycle and at day 2 matured to schizonts, which formed new rings by day 3.

[7] = tested on: P. falciparum 3D7 and PFD0495c-GFP clones; conditions: after 36 h of treatment, previous studies; cited from earlier work
[8] = 50 μM in resealed erythrocyte ghosts

Compound	effect on invasion (measured as ring formation) (P. falciparum; [8])	effect on trophozoite growth (P. falciparum; [8])	parasitemia on Day 3 (P. falciparum; ghosts loaded with 10 μM)	effect on tubular-TVN development [1]	effect on parasite protein export [2]	PFC0435w transcriptional change (down regulated) [3] [fold]	PFD0495c transcriptional change (upregulated) [3] [fold]	PFD0495c transcript level compared to vehicle control [4]	internalization of FM4-64 via TVN tubules [5]	reversibility of effects on parasite growth upon washing out drug ([6]; 5 μM PPMP 24 h, parent line and transgenic clones)	parasite stage after 24 incubation ([6]; 5 uM PPMP, 3D7 and both PFD0495c-GFP clones)	concentrations inhibiting 50% and 90% parasite growth [7]
GST-PFD0495cCterm: recombinant form of the C-terminal region of PFD0495c (amino acids 795 to 833) fused to glutathione S-transferase (DLDIDDTLKFQHDQEFLNYFKRYQDFNNQLFDSFRSDDR; also: fused to glutathione S-transferase)	no significant effect	inhibitory	6-7%	disrupted	no deleterious effect	–	–	–	–	–	–	–
CCCCCCCCCCCCCCCC(=O)N[C@H](CN1CCOCC1)[C@H](O)c1ccccc1 (racemic) [PPMP, dl-threo-1-phenyl-2-palmitoyl-3-morpholino-1-propanol]	–	–	–	–	–	~4	~3	significantly up-regulated	blocked	completely reversible	remained at the trophozoite stage	low micromolar
